Laboratory results as given in ChEMBL document CHEMBL4190162, “SAR and identification of 2-(quinolin-4-yloxy)acetamides as Mycobacterium tuberculosis cytochrome bc1 inhibitors” (Medchemcomm, 2016).
Converted amounts (≈) assume the structure as drawn. The source made the active and inactive calls. The rule behind the calls is not given here.

Columns and labels:
[1] = tested on: Mycobacterium tuberculosis; test: Antimycobacterial activity against Mycobacterium tuberculosis H37Rv after 2 weeks by microplate alamar blue assay; format: functional; settings: 336 h
[2] = tested on: Mycobacteroides abscessus; test: Antibacterial activity against Mycobacterium abscessus; format: functional, organism-based
[3] = Cytotoxicity against human HepG2 cells after 24 to 48 hrs in presence of galactose by trypan blue dye-based hemocytometric method; format: cell-based
[4] = tested on: Mycobacterium tuberculosis; test: Antimycobacterial activity against Mycobacterium tuberculosis H37Rv measured after 1 week; format: functional; settings: 168 h
[5] = tested on: Mycobacterium tuberculosis; test: Antimycobacterial activity against Mycobacterium tuberculosis H37Rv BSG001; format: functional, organism-based
[6] = tested on: Staphylococcus aureus; test: Antibacterial activity against Staphylococcus aureus XEN36; format: functional, organism-based
[7] = tested on: Mycolicibacterium smegmatis; test: Antibacterial activity against Mycobacterium smegmatis; format: functional, organism-based
[8] = tested on: Mycobacterium tuberculosis; test: Antimycobacterial activity against Mycobacterium tuberculosis H37Rv measured after 2 weeks; format: functional; settings: 336 h
[9] = tested on: Escherichia coli; test: Antibacterial activity against Escherichia coli 25922; format: functional, organism-based; settings: ATCC 25922
[10] = tested on: Mycobacterium tuberculosis H37Rv; test: Inhibition of Mycobacterium tuberculosis H37Rv cytochrome bc1 oxidase assessed as reduction in ATP level measured up to 24 hrs under anaerobic condition
[11] = Cytotoxicity against human HepG2 cells after 24 to 48 hrs in presence of glucose by trypan blue dye-based hemocytometric method; format: cell-based

For COc1ccc2nc(C)cc(OCC(=O)Nc3ccc4c(c3)OCO4)c2c1, the MIC [1] was 2.13 µM (≈ 0.78 µg/mL), the Activity [2] was “inactive” and the CC50 [3] was 39.6 µM. For the same compound, the MIC [4] was 4.26 µM (≈ 1.56 µg/mL), the Activity [5] was “inactive” and the Activity [6] was “inactive”. For the same compound, the Activity [7] was “inactive”, the MIC [8] was greater than 136 µM and the Activity [9] was “inactive”. For the same compound, the inhibition [10] was “Active” and the CC50 [11] was 80 µM.
In the case of COc1ccc2nc(C)cc(OCC(=O)Nc3ccc(-c4ccccc4)cc3)c2c1, the MIC [1] is reported as 1.51 µM (≈ 0.602 µg/mL), the Activity [2] is reported as “inactive” and the CC50 [3] is reported as greater than 126 µM. For the same compound, the MIC [4] was greater than 125 µM, the Activity [5] was “inactive” and the Activity [6] was “inactive”. For the same compound, the Activity [7] was “inactive”, the MIC [8] was greater than 125 µM and the Activity [9] was “inactive”. For the same compound, the inhibition [10] was “Active” and the CC50 [11] was greater than 126 µM.
With COc1ccc2nc(C)cc(OCC(=O)Nc3ccc(OC)c(OC)c3)c2c1 the MIC [1] was 24.6 µM (≈ 9.4 µg/mL), the Activity [2] was “inactive” and the CC50 [3] was greater than 131 µM. For the same compound, the MIC [4] was greater than 131 µM, the Activity [5] was “inactive” and the Activity [6] was “inactive”. The Activity [7] was “inactive”, the MIC [8] was greater than 131 µM and the Activity [9] was “inactive”. The inhibition [10] was “Active” and the CC50 [11] was greater than 131 µM.
In the case of Nc1ccc(C(=O)O)c(O)c1 [AMINOSALICYLIC ACID], the MIC [1] is reported as 0.3 µM (≈ 0.0459 µg/mL), the MIC [4] is reported as 0.3 µM (≈ 0.0459 µg/mL) and the MIC [8] is reported as 0.6 µM (≈ 0.0919 µg/mL).
For COc1ccc2nc(C)cc(OCC(=O)Nc3ccccc3)c2c1, the MIC [1] was 0.62 µM (≈ 0.2 µg/mL), the Activity [2] was “inactive” and the CC50 [3] was 118 µM. For the same compound, the MIC [4] was 1.21 µM (≈ 0.39 µg/mL), the Activity [5] was “inactive” and the Activity [6] was “inactive”. For the same compound, the Activity [7] was “inactive”, the MIC [8] was greater than 155 µM and the Activity [9] was “inactive”. The inhibition [10] was “Active” and the CC50 [11] was greater than 155 µM.
In the case of COc1ccc(OC)c(CCNC(=O)COc2cc(C)nc3ccc(OC)cc23)c1, the MIC [1] is reported as 60.9 µM (≈ 25 µg/mL), the Activity [2] is reported as “inactive” and the CC50 [3] is reported as greater than 122 µM. For the same compound, the MIC [4] was 122 µM (≈ 50 µg/mL), the Activity [5] was “inactive” and the Activity [6] was “inactive”. For the same compound, the Activity [7] was “inactive”, the MIC [8] was greater than 122 µM and the Activity [9] was “inactive”. The inhibition [10] was “Active” and the CC50 [11] was greater than 122 µM.
With COc1ccccc1NC(=O)COc1cc(C)nc2ccccc12 the MIC [1] was greater than 78 µM, the Activity [2] was “inactive” and the CC50 [3] was 8.64 µM. The MIC [4] was 38.8 µM (≈ 12.5 µg/mL), the Activity [5] was “inactive” and the Activity [6] was “inactive”. For the same compound, the Activity [7] was “inactive”, the MIC [8] was greater than 155 µM and the Activity [9] was “inactive”. For the same compound, the inhibition [10] was “Active” and the CC50 [11] was 43.9 µM.
In the case of COc1cccc(NC(=O)COc2cc(C)nc3ccc(OC)cc23)c1, the MIC [1] is reported as 6.53 µM (≈ 2.3 µg/mL), the Activity [2] is reported as “inactive” and the CC50 [3] is reported as 24.7 µM. The MIC [4] was 142 µM (≈ 50 µg/mL), the Activity [5] was “inactive” and the Activity [6] was “inactive”. The Activity [7] was “inactive”, the MIC [8] was greater than 142 µM and the Activity [9] was “inactive”. For the same compound, the inhibition [10] was “Active” and the CC50 [11] was 43 µM.
In the case of COc1ccc2nc(C)cc(OCC(=O)NCc3ccc4c(c3)OCO4)c2c1, the MIC [1] is reported as 0.53 µM (≈ 0.202 µg/mL), the Activity [2] is reported as “inactive” and the CC50 [3] is reported as 86.9 µM. For the same compound, the MIC [4] was 0.53 µM (≈ 0.202 µg/mL), the Activity [5] was “inactive” and the Activity [6] was “inactive”. For the same compound, the Activity [7] was “inactive”, the MIC [8] was 24.7 µM (≈ 9.4 µg/mL) and the Activity [9] was “inactive”. For the same compound, the inhibition [10] was “Active” and the CC50 [11] was greater than 131 µM.
In the case of COc1ccc2nc(C)cc(OCC(=O)NCCc3ccccc3)c2c1, the MIC [1] is reported as 54.2 µM (≈ 19 µg/mL), the Activity [2] is reported as “inactive” and the CC50 [3] is reported as 83.9 µM. The MIC [4] was 143 µM (≈ 50 µg/mL), the Activity [5] was “inactive” and the Activity [6] was “inactive”. For the same compound, the Activity [7] was “inactive”, the MIC [8] was greater than 143 µM and the Activity [9] was “inactive”. For the same compound, the inhibition [10] was “Active” and the CC50 [11] was 61.4 µM.
For COc1ccc2nc(C)cc(OCC(=O)Nc3ccc(Br)cc3)c2c1, the MIC [1] was 1.94 µM (≈ 0.778 µg/mL), the Activity [2] was “inactive” and the CC50 [3] was greater than 125 µM. The MIC [4] was greater than 125 µM, the Activity [5] was “inactive” and the Activity [6] was “inactive”. The Activity [7] was “inactive”, the MIC [8] was greater than 125 µM and the Activity [9] was “inactive”. For the same compound, the inhibition [10] was “Active” and the CC50 [11] was greater than 125 µM.
In the case of COc1ccc2nc(C)cc(OCC(=O)NCCc3ccc4c(c3)OCO4)c2c1, the MIC [1] is reported as 31.7 µM (≈ 12.5 µg/mL), the Activity [2] is reported as “inactive” and the CC50 [3] is reported as greater than 127 µM. The MIC [4] was no less than 127 µM, the Activity [5] was “inactive” and the Activity [6] was “inactive”. For the same compound, the Activity [7] was “inactive”, the MIC [8] was greater than 127 µM and the Activity [9] was “inactive”. For the same compound, the inhibition [10] was “Active” and the CC50 [11] was greater than 127 µM.
Work on CCCCCC[C@H]1C(=O)O[C@H](C)[C@H](NC(=O)c2cccc(NC=O)c2O)C(=O)O[C@@H](C)[C@@H]1OC(=O)CC(C)C [ANTIMYCIN A] yielded a CC50 [3] of 0.017 µM and a CC50 [11] greater than 50 µM.
In the case of COc1ccc(NC(=O)COc2cc(C)nc3ccc(OC)cc23)c(OC)c1, the MIC [1] is reported as 2.04 µM (≈ 0.78 µg/mL), the Activity [2] is reported as “inactive” and the CC50 [3] is reported as greater than 131 µM. For the same compound, the MIC [4] was 24.6 µM (≈ 9.4 µg/mL), the Activity [5] was “inactive” and the Activity [6] was “inactive”. The Activity [7] was “inactive”, the MIC [8] was 32.7 µM (≈ 12.5 µg/mL) and the Activity [9] was “inactive”. The inhibition [10] was “Active” and the CC50 [11] was greater than 131 µM.
With COc1ccccc1NC(=O)COc1cc(C)nc2ccc(C(F)(F)F)cc12 the MIC [1] was greater than 128 µM, the Activity [2] was “inactive” and the CC50 [3] was greater than 128 µM. The MIC [4] was greater than 128 µM, the Activity [5] was “inactive” and the Activity [6] was “inactive”. For the same compound, the Activity [7] was “inactive”, the MIC [8] was greater than 128 µM and the Activity [9] was “inactive”. The inhibition [10] was “Active” and the CC50 [11] was greater than 128 µM.
With COc1ccccc1NC(=O)COc1cc(C)nc2ccc(C)cc12 the MIC [1] was 9.3 µM (≈ 3.13 µg/mL), the Activity [2] was “inactive” and the CC50 [3] was greater than 74 µM. For the same compound, the MIC [4] was 56.5 µM (≈ 19 µg/mL), the Activity [5] was “inactive” and the Activity [6] was “inactive”. For the same compound, the Activity [7] was “inactive”, the MIC [8] was greater than 74 µM and the Activity [9] was “inactive”. For the same compound, the inhibition [10] was “Active” and the CC50 [11] was greater than 74 µM.
For COc1ccc2nc(C)cc(OCC(=O)NCCCc3ccccc3)c2c1, the MIC [1] was 25.8 µM (≈ 9.4 µg/mL), the Activity [2] was “inactive” and the CC50 [3] was 50.7 µM. For the same compound, the MIC [4] was 68.6 µM (≈ 25 µg/mL), the Activity [5] was “inactive” and the Activity [6] was “inactive”. The Activity [7] was “inactive”, the MIC [8] was 68.6 µM (≈ 25 µg/mL) and the Activity [9] was “inactive”. For the same compound, the inhibition [10] was “Active” and the CC50 [11] was greater than 137 µM.
With COc1cc(NC(=O)COc2cc(C)nc3ccc(OC)cc23)cc(OC)c1 the MIC [1] was 24.6 µM (≈ 9.4 µg/mL), the Activity [2] was “inactive” and the CC50 [3] was greater than 131 µM. For the same compound, the MIC [4] was greater than 131 µM, the Activity [5] was “inactive” and the Activity [6] was “inactive”. The Activity [7] was “inactive”, the MIC [8] was greater than 131 µM and the Activity [9] was “inactive”. The inhibition [10] was “Active” and the CC50 [11] was greater than 131 µM.
With C#CCNC(=O)COc1cc(C)nc2ccc(OC)cc12 the MIC [1] was greater than 176 µM, the Activity [2] was “inactive” and the CC50 [3] was greater than 176 µM. The MIC [4] was greater than 176 µM, the Activity [5] was “inactive” and the Activity [6] was “inactive”. For the same compound, the Activity [7] was “inactive”, the MIC [8] was greater than 176 µM and the Activity [9] was “inactive”. The inhibition [10] was “Active” and the CC50 [11] was greater than 176 µM.
In the case of c1ccc(Cn2cnc3c(-c4ccco4)nccc32)cc1, the MIC [1] is reported as 1.56 µM (≈ 0.429 µg/mL), the CC50 [3] is reported as greater than 25 µM and the MIC [4] is reported as 12.5 µM (≈ 3.44 µg/mL). For the same compound, the MIC [8] was greater than 25 µM, the inhibition [10] was “Active” and the CC50 [11] was greater than 25 µM.
In the case of COc1nc2ccc(Br)cc2cc1[C@@H](c1ccccc1)[C@@](O)(CCN(C)C)c1cccc2ccccc12, the inhibition [10] is reported as “Active”.
With CC(=O)NC[C@H]1CN(c2ccc(N3CCOCC3)c(F)c2)C(=O)O1 [LINEZOLID] the MIC [1] was 2.3 µM (≈ 0.776 µg/mL), the MIC [4] was 2.3 µM (≈ 0.776 µg/mL) and the MIC [8] was 2.3 µM (≈ 0.776 µg/mL). The inhibition [10] was “inactive”.
